Results reported in PMC7470115, “Design, synthesis and biological evaluation of novel tetrahydrothieno [2,3-c]pyridine substitued benzoyl thiourea derivatives as PAK1 inhibitors in triple negative breast cancer” (Journal of Enzyme Inhibition and Medicinal Chemistry, 2020).

target: PAK1 (Homo sapiens, UniProt Q13153); assay: PAK1 enzymatic assay (Kinase-Glo Plus / ADP-Glo luminescence); assay type: biochemical; settings: tested in triplicate, mean ± SD; 50 µM ATP; read-out: Kinase inhibitory activity (IC50, μM) PAK1
Sequence (Q13153 whole entry): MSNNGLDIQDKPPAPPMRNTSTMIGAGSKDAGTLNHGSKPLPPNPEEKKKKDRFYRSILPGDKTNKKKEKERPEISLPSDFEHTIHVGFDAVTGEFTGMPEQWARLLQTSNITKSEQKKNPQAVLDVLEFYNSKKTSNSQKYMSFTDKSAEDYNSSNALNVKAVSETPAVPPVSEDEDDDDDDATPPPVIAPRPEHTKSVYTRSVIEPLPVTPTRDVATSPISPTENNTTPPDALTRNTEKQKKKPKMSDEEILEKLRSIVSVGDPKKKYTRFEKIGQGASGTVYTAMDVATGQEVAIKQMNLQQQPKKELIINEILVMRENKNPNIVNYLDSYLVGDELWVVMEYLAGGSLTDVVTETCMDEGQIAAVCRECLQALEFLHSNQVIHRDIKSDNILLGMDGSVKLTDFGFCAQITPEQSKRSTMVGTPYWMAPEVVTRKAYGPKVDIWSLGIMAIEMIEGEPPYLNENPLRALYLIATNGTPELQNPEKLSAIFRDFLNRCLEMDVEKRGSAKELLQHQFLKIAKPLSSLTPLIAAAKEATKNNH
Method: These assays were carried out as described previously. All of the enzymatic reactions were conducted at 30 °C for 40 min. The 50 µl reaction mixture contains 40 mM Tris, pH 7.4, 10 mM MgCl2, 0.1 mg/ml BSA, 1 mM DTT, 50 µM ATP, 0.2 μg/ml PAK1 and 100 uM lipid substrate. The compounds were diluted in 10% DMSO and 5 µl of the dilution was added to a 50 µl reaction so that the final concentration of DMSO is 1% in all of the reactions. The assay was performed using the Kinase-Glo Plus luminescence kinase assay kit and ADP-Glo Plus luminescence kinase assay kit. It measures kinase activity by quantitating the amount of ATP remaining in solution following a kinase reaction. The luminescent signal from the assay is correlated with the amount of ATP present and is inversely correlated with the amount of kinase activity. The IC50 values were calculated using nonlinear regression with normalised dose − response fit using Prism GraphPad software.

Q: CC(C)(C)OC(=O)N1CCc2c(sc(NC(=S)NC(=O)c3cccc(C(F)(F)F)c3)c2C(N)=O)C1 [Compound 5m, Tert-butyl-3-carbamoyl-2–(3-(3-(trifluoromethyl)benzoyl)thioureido)-4,7-dihydrothieno[2,3-c]pyridine-6(5H)-carboxylate] was tested. Which IC50 did it give?
A: The IC50 was 2.02 ± 0.27 µM.

Q: With CC(C)(C)OC(=O)N1CCc2c(sc(NC(=S)NC(=O)C3CCCCC3)c2C(N)=O)C1 [Compound 5p, Tert-butyl-3-carbamoyl-2–(3-(cyclohexanecarbonyl)thioureido)-4,7-dihydrothieno[2,3-c]pyridine-6(5H)-carboxylate] as the compound, how does the IC50 read?
A: Its IC50 is 19.3 ± 1.85 µM.

Q: CC(C)(C)OC(=O)N1CCc2c(sc(NC(=S)NC(=O)Cc3cccs3)c2C(N)=O)C1 [Compound 5q, Tert-butyl-3-carbamoyl-2–(3-(2-(thiophen-2-yl)acetyl)thioureido)-4,7-dihydrothieno[2,3-c]pyridine-6(5H)-carboxylate] was tested. Which IC50 did it give?
A: Its IC50 is 15.6 ± 1.64 µM.

Q: With NC(=O)c1c(NC(=S)NC(=O)c2cccc(C(F)(F)F)c2)sc2c1CCN(C(=O)C1CCC1)C2 [Compound 7k, 6-(cyclobutanecarbonyl)-2–(3-(3-(trifluoromethyl)benzoyl)thioureido)-4,5,6,7-tetrahydrothieno[2,3-c]pyridine-3-carboxamide] as the compound, how does the IC50 read?
A: Its IC50 is 0.68 ± 0.07 µM.

Q: How did the IC50 turn out when CC(C)(C)OC(=O)N1CCc2c(sc(NC(=S)NC(=O)c3cccc(Cl)c3Cl)c2C(N)=O)C1 [Compound 5o, Tert-butyl-3-carbamoyl-2–(3-(2,3-dichlorobenzoyl)thioureido)-4,7-dihydrothieno[2,3-c]pyridine-6(5H)-carboxylate] was run?
A: The IC50 was 7.43 ± 0.81 µM.

Q: How did the IC50 turn out when CC(C)(C)OC(=O)N1CCc2c(sc(NC(=S)NC(=O)c3ccc(Br)cc3)c2C(N)=O)C1 [Compound 5g, Tert-butyl-2–(3-(4-bromobenzoyl)thioureido)-3-carbamoyl-4,7-dihydrothieno[2,3-c]pyridine-6(5H)-carboxylate] was run?
A: Its IC50 is 9.35 ± 0.97 µM.

Q: For Cc1ccccc1C(=O)NC(=S)Nc1sc2c(c1C(N)=O)CCN(C(=O)OC(C)(C)C)C2 [Compound 5c, Tert-butyl-3-carbamoyl-2–(3-(2-methylbenzoyl)thioureido)-4,7-dihydrothieno[2,3-c]pyridine-6(5H)-carboxylate], which IC50 is on record?
A: The IC50 was 6.21 ± 0.69 µM.

Q: Which IC50 does the source give for CC(C)(C)OC(=O)N1CCc2c(sc(NC(=S)NC(=O)c3ccc(C(F)(F)F)cc3)c2C(N)=O)C1 [Compound 5n, Tert-butyl-3-carbamoyl-2–(3-(4-(trifluoromethyl)benzoyl)thioureido)-4,7-dihydrothieno[2,3-c]pyridine-6(5H)-carboxylate] here?
A: The IC50 was 12.1 ± 1.35 µM.

Q: With CC(C)(C)OC(=O)N1CCc2c(sc(NC(=S)NC(=O)c3ccccc3)c2C(N)=O)C1 [Compound 5a, Tert-butyl-2–(3-benzoylthioureido)-3-carbamoyl-4,7-dihydrothieno[2,3-c]pyridine-6(5H)-carboxylate] as the compound, how does the IC50 read?
A: Its IC50 is 7.64 ± 0.72 µM.

Q: With NC(=O)c1c(NC(=S)NC(=O)c2cccc(C(F)(F)F)c2)sc2c1CCN(C(=O)C1CCOCC1)C2 [Compound 7n, 6-(tetrahydro-2H-pyran-4-carbonyl)-2–(3-(3-(trifluoromethyl)benzoyl)thioureido)-4,5,6,7-tetrahydrothieno[2,3-c]pyridine-3-carboxamide] as the compound, how does the IC50 read?
A: The IC50 was 4.87 ± 0.65 µM.

Q: NC(=O)c1c(NC(=S)NC(=O)c2cccc(C(F)(F)F)c2)sc2c1CCN(C(=O)CCCl)C2 [Compound 7g, 6–(3-chloropropanoyl)-2–(3-(3-(trifluoromethyl)benzoyl)thioureido)-4,5,6,7-tetrahydrothieno[2,3-c]pyridine-3-carboxamide] was tested. Which IC50 did it give?
A: The IC50 was 5.75 ± 0.63 µM.

Q: How did the IC50 turn out when C/C=C/C(=O)N1CCc2c(sc(NC(=S)NC(=O)c3cccc(C(F)(F)F)c3)c2C(N)=O)C1 [Compound 7h, (E)-6-(but-2-enoyl)-2–(3-(3-(trifluoromethyl)benzoyl)thioureido)-4,5,6,7-tetrahydrothieno[2,3-c]pyridine-3-carboxamide] was run?
A: Its IC50 is 4.14 ± 0.51 µM.

Q: For Cc1cc(C)c(C(=O)NC(=S)Nc2sc3c(c2C(N)=O)CCN(C(=O)OC(C)(C)C)C3)c(C)c1 [Compound 5e, Tert-butyl-3-carbamoyl-2–(3-(2,4,6-trimethylbenzoyl)thioureido)-4,7-dihydrothieno[2,3-c]pyridine-6(5H)-carboxylate], which IC50 is on record?
A: The IC50 was 11.2 ± 1.01 µM.

Q: Cc1ccc(C(=O)NC(=S)Nc2sc3c(c2C(N)=O)CCN(C(=O)OC(C)(C)C)C3)cc1 [Compound 5b, Tert-butyl-3-carbamoyl-2–(3-(4-methylbenzoyl)thioureido)-4,7-dihydrothieno[2,3-c]pyridine-6(5H)-carboxylate] was tested. Which IC50 did it give?
A: Its IC50 is 7.28 ± 0.78 µM.

Q: For COc1ccc(C(=O)NC(=S)Nc2sc3c(c2C(N)=O)CCN(C(=O)OC(C)(C)C)C3)cc1 [Compound 5f, Tert-butyl-3-carbamoyl-2–(3-(4-methoxybenzoyl)thioureido)-4,7-dihydrothieno[2,3-c]pyridine-6(5H)-carboxylate], which IC50 is on record?
A: The IC50 was 16.4 ± 1.78 µM.

Q: How did the IC50 turn out when NC(=O)c1c(NC(=S)NC(=O)c2cccc(C(F)(F)F)c2)sc2c1CCN(C(=O)c1ccc(Cl)cc1)C2 [Compound 7b, 6–(4-chlorobenzoyl)-2–(3-(3-(trifluoromethyl)benzoyl)thioureido)-4,5,6,7-tetrahydrothieno[2,3-c]pyridine-3-carboxamide] was run?
A: The IC50 was 13.2 ± 1.39 µM.

Q: With C=C(C)C(=O)N1CCc2c(sc(NC(=S)NC(=O)c3cccc(C(F)(F)F)c3)c2C(N)=O)C1 [Compound 7i, 6-methacryloyl-2–(3-(3-(trifluoromethyl)benzoyl)thioureido)-4,5,6,7-tetrahydrothieno[2,3-c]pyridine-3-carboxamide] as the compound, how does the IC50 read?
A: Its IC50 is 3.42 ± 0.33 µM.

Q: For CC(C)C(=O)N1CCc2c(sc(NC(=S)NC(=O)c3cccc(C(F)(F)F)c3)c2C(N)=O)C1 [Compound 7e, 6-isobutyryl-2–(3-(3-(trifluoromethyl)benzoyl)thioureido)-4,5,6,7-tetrahydrothieno[2,3-c]pyridine-3-carboxamide], which IC50 is on record?
A: The IC50 was 3.08 ± 0.29 µM.

Q: How did the IC50 turn out when Cc1cccc(C(=O)NC(=S)Nc2sc3c(c2C(N)=O)CCN(C(=O)OC(C)(C)C)C3)c1 [Compound 5d, Tert-butyl-3-carbamoyl-2–(3-(3-methylbenzoyl)thioureido)-4,7-dihydrothieno[2,3-c]pyridine-6(5H)-carboxylate] was run?
A: Its IC50 is 4.32 ± 0.51 µM.

Q: CC(C)(C)OC(=O)N1CCc2c(sc(NC(=S)NC(=O)c3ccc(F)cc3)c2C(N)=O)C1 [Compound 5h, Tert-butyl-3-carbamoyl-2–(3-(4-fluorobenzoyl)thioureido)-4,7-dihydrothieno[2,3-c]pyridine-6(5H)-carboxylate] was tested. Which IC50 did it give?
A: The IC50 was 5.33 ± 0.65 µM.

Q: For CC(C)(C)OC(=O)N1CCc2c(sc(NC(=S)NC(=O)c3ccccc3F)c2C(N)=O)C1 [Compound 5i, Tert-butyl-3-carbamoyl-2–(3-(2-fluorobenzoyl)thioureido)-4,7-dihydrothieno[2,3-c]pyridine-6(5H)-carboxylate], which IC50 is on record?
A: Its IC50 is 7.82 ± 0.71 µM.

Q: For CC(C)(C)OC(=O)N1CCc2c(sc(NC(=S)NC(=O)c3ccc(Cl)cc3)c2C(N)=O)C1 [Compound 5j, Tert-butyl-3-carbamoyl-2–(3-(4-chlorobenzoyl)thioureido)-4,7-dihydrothieno[2,3-c]pyridine-6(5H)-carboxylate], which IC50 is on record?
A: Its IC50 is 9.12 ± 0.95 µM.

Q: How did the IC50 turn out when CC(C)(C)OC(=O)N1CCc2c(sc(NC(=S)NC(=O)c3cccc(Cl)c3)c2C(N)=O)C1 [Compound 5l, Tert-butyl-3-carbamoyl-2–(3-(3-chlorobenzoyl)thioureido)-4,7-dihydrothieno[2,3-c]pyridine-6(5H)-carboxylate] was run?
A: The IC50 was 5.15 ± 0.54 µM.
